Measurements reported in patent US20120207861A1, “BIOCIDAL COMPOSITION AND METHOD FOR TREATING RECIRCULATING WATER SYSTEMS” (priority 2006, published 2012).

System: biofilm of fungal isolates (Paecilomyces lilacinus, Trichoderma spp.) and bacterial isolates (Alcaligenes species, Sphingomonas species)
Assay: Remediation: 96-well plate mixed biofilm treated with biocides, resazurin readout
Assay type: cell-based
Settings: for Efficacy level (Effective Concentration with 6 ppm of PHMB): with 6 ppm PHMB, biofilm treated 24 hours at 28° C., resazurin
Protocol: Fungal isolates of common fungi found in swimming pools such as Paecilomyces lilacinus and Trichoderma spp. and bacterial isolates also common to swimming pools such as, i.e. Alcaligenes species and Sphingomonas species were used to construct a biofilm, which was treated with biocides, using the following method: […] An aliquot of the spore suspension was added to each well of a 96-well plate, except column 12. The plates were incubated for 18 hours at 28° C. Also, a mixture of bacterial suspension was prepared at a concentration of 2.34×10^5/ml in 20% […] broth. An aliquot of bacterial suspension was added to each well of the 96-well plate, where fungal spores were placed. The plates were incubated for 24 hours at 28° C. […] An aliquot of the chemical solution was added to each well of column 1 and 2. The solution was mixed in each well of column 2 and an aliquot of solution was transferred from each well of column 2 to each well of column 3. The dilution was repeated to column 11 and the solution from each well of column 11 after dilution was discarded. The culture broth was removed from each well of the incubated plate. An aliquot of 0.8% sodium chloride solution was added to each well, except column 12. The sodium chloride solution was then removed from each well. The prepared chemical solutions were transferred to the corresponding wells of the biofilm plate. The plate was incubated for 24 hours at 28° C. The chemical solution was removed from the plate and an aliquot of resazurin solution was added to each well including column 12. The plate was kept on the lab bench for 24-48 hours. The plate was read at 540 nm and 620 nm. The difference in absorbance between the two wavelengths indicated the performance of the biocides.

Row | Molecule | Result (effect of adjuvant on DBNPA efficacy against biofilm) (adjuvant 50 ppm with DBNPA in presence of PHMB) | Efficacy level (Effective Concentration with 6 ppm of PHMB) [ppm]
1 | NS(=O)(=O)O [Sulfamic acid] | most significant effect on lowering the concentration of DBNPA | –
2 | Fatty alcohol polyglycol ether [Genapol C 050] | – | >100
3 | N-Alkyl (C12-16)-N,N-dimethyl-N-benzylammonium chloride [Uniquat QAC-50] | – | >100
4 | POE (2) stearyl ether [Brij ® 72] | – | >100
5 | Sorbitan monooleate [Alkamuls BR] | – | >100
